Earlier results as cited in patent US20220160890A1, “SURVIVAL-TARGETING CHIMERIC (SURTAC) MOLECULES” (Locki Therapeutics Limited, priority 2019, published 2022).

Tests used:
p53 [1] = biological target: T1, p53 (Homo sapiens, UniProt P04637)
T1 construct: various tumor cells lines expressing wild-type p53

p53-HDM-2 interaction = p53-HDM-2 interaction (Homo sapiens, UniProt P04637); conditions: in vitro and in vivo
[2] = tested on: tumor cells lines expressing wild-type p53; conditions: tumor cell lines expressing wild-type p53
p53 [3] = biological target: T1, p53; remark: listed apart in the source

T1 sequence (P04637 whole entry): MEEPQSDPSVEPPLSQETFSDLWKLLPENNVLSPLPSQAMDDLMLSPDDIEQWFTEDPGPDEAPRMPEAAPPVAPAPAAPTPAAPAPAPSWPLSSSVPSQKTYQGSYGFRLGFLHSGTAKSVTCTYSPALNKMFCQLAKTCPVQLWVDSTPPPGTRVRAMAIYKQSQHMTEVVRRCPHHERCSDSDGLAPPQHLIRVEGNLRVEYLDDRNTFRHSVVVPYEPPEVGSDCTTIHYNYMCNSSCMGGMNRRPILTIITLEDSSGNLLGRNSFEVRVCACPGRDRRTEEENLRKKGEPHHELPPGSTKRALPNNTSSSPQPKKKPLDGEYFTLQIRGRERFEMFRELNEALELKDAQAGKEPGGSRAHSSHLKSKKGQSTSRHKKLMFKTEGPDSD
Chain of p53-HDM-2 interaction (P04637 whole entry): as above

OCc1ccc(-c2ccc(-c3ccc(CO)s3)o2)s1 [RITA, 2,5-bis(5-hydroxymethyl-2-thienyl)furan]
accumulation of p53 in tumor cells (p53 [1]): induces its accumulation in tumor cells
p53-HDM-2 interaction (p53-HDM-2 interaction): prevents p53-HDM-2 interaction
apoptosis [2]: massive apoptosis
expression of p53 target genes [2]: induced expression of p53 target genes
binding to p53 (p53 [3]): binds to p53
